Laboratory results: patent US5036059A, “1,4-Dihydropyridine-3-carboxylate derivatives” (Nippon Shinyaku Company, Limited, priority 1984, dated 1991)
Where a name gives a salt, the structure may show the parent alone.

Assays:
[1] = tested on: spontaneously hypertensive rats; assay: Hypotensive action in spontaneously hypertensive rats, systolic arterial blood pressure by tail plethysmography, oral; type: in vivo; conditions: 30 mg/kg p.o.
Protocol: (§1) Hypotensive action of diltiazem (which is a known hypotensive drug) measured by the same method at the doses of 3, 10 and 30 mg/kg were 0, 11.2 and 33.0%, respectively. Hypotensive action of the compound of Example 4 which is one of the most representative compounds of this invention was tested using spontaneously hypertensive rats and was compared with those of Nifedipine and Diltiazem hydrochloride. The method applied was that the drugs were orally given to the rats of which systolic arterial blood pressure were higher than 180 mmHg when it was measured plethysmographically using tail arteries. (Table 3)
Doses in mg/kg (p.o.) are as follows: *0.3 (1.0); **1.0 (3.0); ***30.

guinea pig heart = assay: Coronary vasodilating action, constant pressure perfusion of isolated guinea pig heart (Langendorff); conditions: Cavia porcellus, via coronary artery; for activation at 0.001 mg: 10^-6 gram/heart; for activation at 0.001 mg / activation at 0.0001 mg: read-out: Perfusion Increasing Rate; for activation at 0.0001 mg: 10^-7 gram/heart
Protocol: Constant pressure perfusion samples of guinea pig heart isolated by a method according to Langendorff were treated with the present invention compounds by administration via coronary artery and the effect was examined (Table 1).
With reference to coronary vasodilating action of diltiazem measured by the same method, the increasing rates in perfusion by administration of 10^-7, 10^-6 and 10^-5 gram/heart were 4, 16 and 55%, respectively.

[2] = tested on: rats (with normal blood pressure); assay: Hypotensive action, mean blood pressure of femoral artery in unanesthetized normotensive rats, oral; type: in vivo; conditions: Rattus norvegicus, read-out: % Decreases in Mean Blood Pressure [at peak effect]; for inhibition in vivo at 1 mg/kg: 1 mg/kg oral; for inhibition in vivo at 3 mg/kg: 3 mg/kg oral; for inhibition in vivo at 10 mg/kg: 10 mg/kg oral
Protocol: Blood pressure of femoral artery of rats (with normal blood pressure) under unanesthetized condition was measured directly using a pressure tranducer.
The present invention compounds were given orally at doses of 1, 3 and 10 mg/kg, and changes in blood pressure were continuously recorded. Percent decreases of mean blood pressure at the peak effect were calculated. The maximum changes in mean blood pressure (%) were shown as "hypotensive action" (Table 2).
as §1

| Compound | activation at 0.001 mg (guinea pig heart) | activation at 0.0001 mg (guinea pig heart) | inhibition in vivo at 1 mg/kg [2] | inhibition in vivo at 3 mg/kg [2] | inhibition in vivo at 10 mg/kg [2] | further results |
| --- | --- | --- | --- | --- | --- | --- |
| COc1ccc([C@@H]2Sc3ccccc3N(CCN(C)C)C(=O)[C@@H]2OC(C)=O)cc1 [Diltiazem.HCl] | – | – | – | – | – | systolic arterial blood pressure ([1]; 0.5 hr after administration): 153.6 ± 5.4; systolic arterial blood pressure ([1]; 1 hr after administration): 141.8 ± 10.8; systolic arterial blood pressure ([1]; 2 hr after administration): 156.2 ± 8.8; systolic arterial blood pressure ([1]; 3 hr after administration): 170.5 ± 4.8; systolic arterial blood pressure ([1]; 5 hr after administration): 183.2 ± 2.8; systolic arterial blood pressure ([1]; 8 hr after administration): 189.3 ± 4.6; systolic arterial blood pressure ([1]; 12 hr after administration): 188.5 ± 2.0; systolic arterial blood pressure ([1]; before administration): 191.2 ± 5.4 |
| CC1=C(C(=O)OC2CCN(Cc3ccccc3)CC2)C(c2cccc([N+](=O)[O-])c2)C(P2(=O)OCCCO2)=C(C)N1 (stereo not drawn) [Example 3, N-Benzyl-4-piperidinyl 2,6-dimethyl-4-(3-nitrophenyl)-5-(2-oxo-1,3,2-dioxaphosphorinan-2-yl)-1,4-dihydropyridine-3-carboxylate] | 18% | 10% | 8.2% | 11.1% | 20.9% | – |
| CCOC(=O)C1=C(C)NC(C)=C(P2(=O)OCC(C)(C)CO2)C1c1cccc([N+](=O)[O-])c1 (stereo not drawn) [Example 8, Ethyl 2,6-dimethyl-5-(5,5-dimethyl-2-oxo-1,3,2-dioxaphosphorinan-2-yl)-4-(3-nitrophenyl-1)-1,4-dihydropyridine-3-carboxylate] | 33% | 11% | 8.1% | 15.5% | 37.1% | – |
| CC1=C(C(=O)OCCN(C)Cc2ccccc2)C(c2cccc([N+](=O)[O-])c2)C(P2(=O)OC(C)CC(C)O2)=C(C)N1 (stereo not drawn) [Example 17, 2-(N-Benzyl-N-methylamino)-ethyl 2,6-dimethyl-5-(4,6-dimethyl-2-oxo-1,3,2-dioxaphosphorinan-2-yl)-4-(3-nitrophenyl)-1,4-dihydropyridine-3-carboxylate] | 23% | 10% | 24.8% | 36.8% | 47% | – |
| CCC1(CC)COP(=O)(C2=C(C)NC(C)=C(C(=O)OCCN(C)Cc3ccccc3)C2c2cccc([N+](=O)[O-])c2)OC1 (stereo not drawn) [Example 22, 2-(N-Benzyl-N-methylamino)-ethyl 5-(5,5-diethyl-2-oxo-1,3,2-dioxaphosphorinan-2-yl)-2,6-dimethyl-4-(3-nitrophenyl)-1,4-dihydropyridine-3-carboxylate] | 31% | 21% | 7.3% | 10.4% | 18.4% | – |
| CCOC(=O)C1=C(C)NC(C)=C(P2(=O)OCC(C(C)C)CO2)C1c1cccc([N+](=O)[O-])c1 (stereo not drawn) [Example 32, Ethyl 2,6-dimethyl-4-(3-nitrophenyl)-5-(5-isopropyl-2-oxo-1,3,2-dioxaphosphorinan-2-yl)-1,4-dihydropyridine-3-carboxylate] | 77% | 24% | 7.8% | 21.2% | 30.5% | – |
| CCOC(=O)C1=C(C)NC(C)=C(P2(=O)OCC3(CCCCC3)CO2)C1c1ccccc1[N+](=O)[O-] (stereo not drawn) [Example 43, Ethyl 2,6-dimethyl-4-(2-nitrophenyl)-5-(3-oxo-2,4-dioxa-3-phosphaspiro(5,5)undecan-3-yl)-1,4-dihydropyridine-3-carboxylate] | 56% | 12% | – | – | – | – |
| CCOC(=O)C1(C(=O)OCC)COP(=O)(C2=C(C)NC(C)=C(C(=O)OCCN(C)Cc3ccccc3)C2c2cccc([N+](=O)[O-])c2)OC1 (stereo not drawn) [Example 45, 2-(N-Benzyl-N-methylamino)-ethyl 5-(5,5-diethoxycarbonyl-2-oxo-1,3,2-dioxaphosphorinan-2-yl)-2,6-dimethyl-4-(3-nitrophenyl)-1,4-dihydropyridine-3-carboxylate] | 29% | 10% | – | – | – | – |
| CCOC(=O)C1(C(=O)OCC)COP(=O)(C2=C(C)NC(C)=C(C(=O)OC)C2c2ccccc2[N+](=O)[O-])OC1 (stereo not drawn) [Example 46, Methyl 5-(5,5-diethoxycarbonyl-2-oxo-1,3,2-dioxaphosphorinan-2-yl)-2,6-dimethyl-4-(2-nitrophenyl)-1,4-dihydropyridine-3-carboxylate] | 19% | 12% | – | – | – | – |
| CC1=C(C(=O)OCCN(C)Cc2ccccc2)C(c2cccc([N+](=O)[O-])c2)C(P2(=O)OC(C)(C)C(C)(C)O2)=C(C)N1 (stereo not drawn) [Example 48, 2-(N-Benzyl-N-methylamino)-ethyl 2,6-dimethyl-4-(3-nitrophenyl)-5-(2-oxo-4,4,5,5-tetramethyl-1,3,2-dioxaphospholan-2-yl)-1,4-dihydropyridine-3-carboxylate] | 35% | 13% | – | – | – | – |
| CCCOCCOC(=O)C1=C(C)NC(C)=C(P2(=O)OC(C)(C)C(C)(C)O2)C1c1cccc([N+](=O)[O-])c1 (stereo not drawn) [Example 49, 2-n-Propoxyethyl 2,6-dimethyl-4-(3-nitrophenyl)-5-(2-oxo-4,4,5,5-tetramethyl-1,3,2-dioxaphospholan-2-yl)-1,4-dihydropyridine-3-carboxylate] | 34% | 14% | – | – | – | – |
| COC(=O)C1=C(C)NC(C)=C(P2(=O)OCCCO2)C1c1ccccc1C(F)(F)F (stereo not drawn) [Example 50, Methyl 2,6-dimethyl-5-(2-oxo-1,3,2-dioxaphosphorinan-2-yl)-4-(2-trifluoromethylphenyl)-1,4-dihydropyridine-3-carboxylate] | 46% | 15% | 42.3% | 44.3% | 47.2% | – |
| CC1=C(C(=O)OCCN(C)Cc2ccccc2)C(c2ccccc2C(F)(F)F)C(P2(=O)OCCCO2)=C(C)N1 (stereo not drawn) [Example 52] | 62% | 10% | 18.4% | 37.2% | 42.8% | – |
| COC(=O)C1=C(C)NC(C)=C(P2(=O)OCCCO2)C1c1ccccc1OC(F)F (stereo not drawn) [Example 53, Methyl 4-(2-difluoromethoxyphenyl)-2,6-dimethyl-5-(2-oxo-1,3,2-dioxaphosphorinan-2-yl)-1,4-dihydropyridine-3-carboxylate] | 25% | 16% | 24.5% | 45.4% | 49.7% | – |
| COC(=O)C1=C(C)NC(C)=C(P2(=O)OCCCO2)C1c1cccc(Cl)c1Cl (stereo not drawn) [Example 56, Methyl 4-(2,3-dichlorophenyl)-2,6-dimethyl-5-(2-oxo-1,3,2-dioxaphosphorinan-2-yl)-1,4-dihydropyridine-3-carboxylate] | 75% | 55% | – | – | – | – |
| CCOC(=O)C1=C(C)NC(C)=C(P2(=O)OCCCO2)C1c1cccc(Cl)c1Cl (stereo not drawn) [Example 57, Ethyl 4-(2,3-dichlorophenyl)-2,6-dimethyl-5-(2-oxo-1,3,2-dioxaphosphorinan-2-yl)-1,4-dihydropyridine-3-carboxylate] | 17% | 11% | – | – | – | – |
| CC1=C(C(=O)OCCN(C)Cc2ccccc2)C(c2cccc(Cl)c2Cl)C(P2(=O)OCC(C)(C)CO2)=C(C)N1 (stereo not drawn) [Example 59, 2-(N-Benzyl-N-methylamino)-ethyl 4-(2,3-dichlorophenyl)-2,6-dimethyl-5-(5,5-dimethyl-2-oxo-1,3,2-dioxaphosphorinan-2-yl)-1,4-dihydropyridine-3-carboxylate] | 33% | 24% | 7.1% | 29.1% | 35.1% | – |
| CC1=C(C(=O)OCCN(C)Cc2ccccc2)C(c2ccccc2C(F)(F)F)C(P2(=O)OCC(C)(C)CO2)=C(C)N1 (stereo not drawn) [Example 62, 2-(N-Benzyl-N-methylamino)-ethyl 2,6-dimethyl-5-(5,5-dimethyl-2-oxo-1,3,2-dioxaphosphorinan-2-yl)-4-(2-trifluoromethylphenyl)-1,4-dihydropyridine-3-carboxylate] | 70% | 19% | 10.6% | 37.4% | 48.3% | – |
| COc1ccc([C@@H]2Sc3ccccc3N(CCN(C)C)C(=O)[C@@H]2OC(C)=O)cc1 [diltiazem, reference compound] | 16% | 4% | – | 0% | 11.2% | activation at 1e-05 g/heart, 1e-05 g/heart (guinea pig heart; 10^-5 gram/heart, read-out: increasing rate in perfusion): 55%; inhibition in vivo at 30 mg/kg ([2]; 30 mg/kg oral): 33% |
